# Test results from patent US10370343B2, “[6,6] Fused bicyclic HDAC8 inhibitors” (FORMA Therapeutics, Inc., priority 2015, dated 2019).
# Counter-ions that a name gives are not always drawn.
# Molecular target: T1, Full length human recombinant HDAC8 protein (Homo sapiens, UniProt Q9BY41)
# T1 construct: Full length human recombinant HDAC8 protein was expressed in baculoviral system; made in house
# T1 sequence (Q9BY41 1-377): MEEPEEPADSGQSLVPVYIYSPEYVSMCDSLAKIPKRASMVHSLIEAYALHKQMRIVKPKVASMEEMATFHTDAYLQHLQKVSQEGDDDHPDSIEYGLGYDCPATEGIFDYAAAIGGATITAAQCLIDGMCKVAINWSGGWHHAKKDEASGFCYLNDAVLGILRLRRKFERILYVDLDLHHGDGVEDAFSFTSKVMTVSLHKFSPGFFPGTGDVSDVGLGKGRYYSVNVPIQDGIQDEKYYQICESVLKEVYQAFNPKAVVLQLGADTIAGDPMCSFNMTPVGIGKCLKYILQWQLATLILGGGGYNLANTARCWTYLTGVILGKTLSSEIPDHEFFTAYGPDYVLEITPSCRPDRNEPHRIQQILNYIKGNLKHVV
# Assay: In vitro histone deacetylase assay: enzymatic HDAC8 electrophoretic mobility shift assay
# Assay type: biochemical
# Conditions: electrophoretic mobility shift assay; enzyme 1 nM; 2 μM fluorescently labeled peptide substrate RHKK(Ac)-NH2; 25° C.; 12 concentrations; read-out: HDAC8 IC50
# Experimental: The enzymatic HDAC8 assay was performed using electrophoretic mobility shift assay. Full length human recombinant HDAC8 protein was expressed in baculoviral system and purified by affinity chromatography. The enzymatic reactions were assembled in 384 well plates in a total volume of 25 μL in a reaction buffer composing: 100 mM HEPES, pH7.5, 25 mM KCl, 0.1% bovine serum albumin, 0.01% Triton X-100, 1% DMSO (from compounds) 2 μM of the fluorescently labeled peptide substrate and enzyme. The enzyme was added at a final concentration of 1 nM. The peptide substrate RHKK(Ac)—NH2 was used. The compounds were tested at 12 concentrations spaced by 3× dilution intervals. Negative control samples (0%-inhibition in the absence of inhibitor) and positive control samples (100%-inhibition) were assembled in replicates of four in each assay plate. The reactions were incubated at 25° C. and quenched by the addition of 45 μL of termination buffer (100 mM HEPES, pH 7.5, 0.01% Triton X-100, 0.05% SDS).
# The terminated assay plates were analyzed on LabChip® 3000 microfluidic electrophoresis instrument (Perkin Elmer/Caliper Life Sciences). The fluorescence intensity of the electrophoretically separated de-acetylated product and substrate peptide was measured. Activity in each sample was determined as the product to sum ratio (PSR): P/(S+P), where P is the peak height of the product peptide and S is the peak height of the substrate peptide. Percent inhibition (Pinh) is determined using the following equation: Pinh=(PSR0%−PSRinh)/(PSR0%−PSR100%)*100, where PSRinh is the product sum ratio in the presence of inhibitor, PSR0% is the average product sum ration in the absence of inhibitor and PSR100% is the average product sum ratio in 100%-inhibition control samples. The IC50 values of inhibitors were determined by fitting the %-inhibition curves with 4 parameter dose-response model using XLfit 4 software.
row,SMILES,IC50 [nM]
1,"O=C(NO)c1ccc2c(c1)N(Cc1cccc(S(=O)(=O)C(F)(F)F)c1)CCS2(=O)=O [Compound I-15, N-hydroxy-4-(3-((trifluoromethyl)sulfonyl)benzyl)-3,4-dihydro-2H-benzo[b][1,4]thiazine-6-carboxamide-1,1-dioxide]",< 25
2,"O=C(NO)c1ccc2c(c1)OC(C(=O)N1CC3(CC3)c3ccccc31)CN2Cc1ccccc1 (stereo not drawn) [Compound I-10, 4-benzyl-N-hydroxy-2-(spiro[cyclopropane-1,3′-indoline]-1′-carbonyl)-3,4-dihydro-2H-benzo[b][1,4]oxazine-7-carboxamide]",25 to 100
3,"CCC(C)N1C(=O)COc2ccc(C(=O)NO)cc21 (stereo not drawn) [Compound I-46, 4-(sec-butyl)-N-hydroxy-3-oxo-3,4-dihydro-2H-benzo[b][1,4]oxazine-6-carboxamide]",100 to 1000
4,"CC1CN(Cc2ccccc2)c2cc(C(=O)NO)ccc2O1 (stereo not drawn) [Compound I-83, 4-benzyl-N-hydroxy-2-methyl-3,4-dihydro-2H-benzo[b][1,4]oxazine-6-carboxamide]",100 to 1000
5,"O=C(NO)c1ccc2c(c1)N(Cc1ccccc1)C(=O)CO2 [Compound I-32, 4-benzyl-N-hydroxy-3-oxo-3,4-dihydro-2H-benzo[b][1,4]oxazine-6-carboxamide]",25 to 100
6,"CN1CC(C(=O)NC2CCOCC2)Oc2cc(C(=O)NO)ccc21 (stereo not drawn) [Compound I-7, N^7-hydroxy-4-methyl-N^2-(tetrahydro-2H-pyran-4-yl)-3,4-dihydro-2H-benzo[b][1,4]oxazine-2,7-dicarboxamide]",100 to 1000
7,"O=C(NO)c1ccc2c(c1)N(Cc1cn3ccsc3n1)CCO2 [Compound I-21, N-hydroxy-4-(imidazo[2,1-b]thiazol-6-ylmethyl)-3,4-dihydro-2H-benzo[b][1,4]oxazine-6-carboxamide]",100 to 1000
8,"O=C(NO)c1ccc2c(c1)N(CC(=O)N1CCOCC1)CCO2 [Compound I-26, N-hydroxy-4-(2-morpholino-2-oxoethyl)-3,4-dihydro-2H-benzo[b][1,4]oxazine-6-carboxamide]",> 1000
9,"COCCN1C(=O)COc2ccc(C(=O)NO)cc21 [Compound I-43, N-hydroxy-4-(2-methoxyethyl)-3-oxo-3,4-dihydro-2H-benzo[b][1,4]oxazine-6-carboxamide]",100 to 1000
10,"CN1CC(C(=O)NCc2ccccc2)Oc2cc(C(=O)NO)ccc21 (stereo not drawn) [Compound I-11, N^2-benzyl-N^7-hydroxy-4-methyl-3,4-dihydro-2H-benzo[b][1,4]oxazine-2,7-dicarboxamide]",25 to 100
11,"O=C(NO)c1ccc2c(c1)N(Cc1ccc(F)c(F)c1)C(=O)CO2 [Compound I-71, 4-(3,4-difluorobenzyl)-N-hydroxy-3-oxo-3,4-dihydro-2H-benzo[b][1,4]oxazine-6-carboxamide]",< 25
12,"CN1CC(C(=O)N2CC3(CC3)c3ccccc32)Oc2ccc(C(=O)NO)cc21 (stereo not drawn) [Compound I-3, N-hydroxy-4-methyl-2-(spiro[cyclopropane-l,3′-indoline]-1′-carbonyl)-3,4-dihydro-2H-benzo[b][1,4]oxazine-6-carboxamide hydrochloride]",100 to 1000
13,"O=C(NO)c1ccc2c(c1)N(Cc1ccc(C(F)(F)F)cc1)C(=O)CO2 [Compound I-35, N-hydroxy-3-oxo-4-(4-(trifluoromethyl)benzyl)-3,4-dihydro-2H-benzo[b][1,4]oxazine-6-carboxamide]",< 25
14,"O=C(NO)c1ccc2c(c1)N(Cc1ccccc1F)C(=O)CO2 [Compound I-69, 4-(2-fluorobenzyl)-N-hydroxy-3-oxo-3,4-dihydro-2H-benzo[b][1,4]oxazine-6-carboxamide]",< 25
15,"CN1CC(C(=O)N2CC3(CC3)c3ccccc32)Oc2cc(C(=O)NO)ccc21 (stereo not drawn) [Compound I-9, N-hydroxy-4-methyl-2-(spiro[cyclopropane-1,3′-indoline]-1′-carbonyl)-3,4-dihydro-2H-benzo[b][1,4]oxazine-7-carboxamide]",< 25
16,"O=C(NO)c1ccc2c(c1)N(S(=O)(=O)c1ccccc1)CCO2 [Compound I-86, N-hydroxy-4-(phenylsulfonyl)-3,4-dihydro-2H-benzo[b][1,4]oxazine-6-carboxamide]",100 to 1000
17,"O=C(NO)c1ccc2c(c1)N(CCN1CCCS1(=O)=O)C(=O)CO2 [Compound I-52, 4-(2-(1,1-dioxidoisothiazolidin-2-yl)ethyl)-N-hydroxy-3-oxo-3,4-dihydro-2H-benzo[b][1,4]oxazine-6-carboxamide]",100 to 1000
18,"CC(C)(C)c1ccc(CN2C(=O)COc3ccc(C(=O)NO)cc32)cc1 [Compound I-70, 4-(4-(tert-butyl)benzyl)-N-hydroxy-3-oxo-3,4-dihydro-2H-benzo[b][1,4]oxazine-6-carboxamide]",< 25
19,"CC(C)CN1C(=O)COc2ccc(C(=O)NO)cc21 [Compound I-57, N-hydroxy-4-isobutyl-3-oxo-3,4-dihydro-2H-benzo[b][1,4]oxazine-6-carboxamide]",100 to 1000

# More lines, now with the values ahead:
row,IC50 [nM],SMILES
1,> 1000,"O=C(NO)c1ccc2c(c1)CCCN2c1nc2ccccc2[nH]1 [Compound I-107, 1-(1H-benzo[d]imidazol-2-yl)-N-hydroxy-1,2,3,4-tetrahydroquinoline-6-carboxamide]"
2,25 to 100,"COc1ccc(CN2C(=O)[C@@H](C)Oc3ccc(C(=O)NO)cc32)cc1 (single isomer, unassigned) [Compound I-162]"
3,100 to 1000,"COc1ccc(CN2C(=O)C3(CCCCC3)Oc3ccc(C(=O)NO)cc32)cc1 [Compound I-158, N-hydroxy-4-(4-methoxybenzyl)-3-oxo-3,4-dihydrospiro[benzo[b][1,4]oxazine-2,1′-cyclohexane]-6-carboxamide]"
4,100 to 1000,"COc1ccc(C(=O)N2CCCc3ccc(C(=O)NO)cc32)cc1 [Compound I-112, N-hydroxy-1-(4-methoxybenzoyl)-1,2,3,4-tetrahydroquinoline-7-carboxamide]"
5,100 to 1000,"COc1cc(CN2CCOc3ccc(C(=O)NO)cc32)ccc1S(C)(=O)=O [Compound I-138, N-hydroxy-4-(3-methoxy-4-(methylsulfonyl)benzyl)-3,4-dihydro-2H-benzo[b][1,4]oxazine-6-carboxamide]"
6,100 to 1000,"COc1ccc(CN2CCOc3ccc(C(=O)NO)cc32)cc1 [Compound I-115, N-hydroxy-4-(4-methoxybenzyl)-3,4-dihydro-2H-benzo[b][1,4]oxazine-6-carboxamide]"
7,25 to 100,"Cc1cccc(CN2CCOc3ccc(C(=O)NO)cc32)c1 [Compound I-122, N-hydroxy-4-(3-methylbenzyl)-3,4-dihydro-2H-benzo[b][1,4]oxazine-6-carboxamide]"
8,25 to 100,"O=C(NO)c1ccc2c(c1)N(Cc1cccc(Cl)c1)CCO2 [Compound I-123, 4-(3-chlorobenzyl)-N-hydroxy-3,4-dihydro-2H-benzo[b][1,4]oxazine-6-carboxamide]"
9,25 to 100,"CC1Oc2ccc(C(=O)NO)cc2N(Cc2ccccc2)C1=O (stereo not drawn) [Compound I-153, 4-benzyl-N-hydroxy-2-methyl-3-oxo-3,4-dihydro-2H-benzo[b][1,4]oxazine-6-carboxamide]"
10,100 to 1000,"O=C(NO)c1ccc2c(c1)N(C(=O)C1CCCCC1)CCO2 [Compound I-114, 4-(cyclohexanecarbonyl)-N-hydroxy-3,4-dihydro-2H-benzo[b][1,4]oxazine-6-carboxamide]"
11,25 to 100,"O=C(NO)c1ccc2c(c1)N(Cc1ccccc1OC(F)F)CCO2 [Compound I-131, 4-(2-(difluoromethoxy)benzyl)-N-hydroxy-3,4-dihydro-2H-benzo[b][1,4]oxazine-6-carboxamide]"
12,25 to 100,"O=C(NO)c1ccc2c(c1)N(CC1CCCCC1)CCO2 [Compound I-133, 4-(cyclohexylmethyl)-N-hydroxy-3,4-dihydro-2H-benzo[b][1,4]oxazine-6-carboxamide]"
13,25 to 100,"O=C(NO)c1ccc2c(c1)N(Cc1ccccc1SC(F)(F)F)C(=O)CO2 [Compound I-262, N-hydroxy-3-oxo-4-(2-((trifluoromethyl)thio)benzyl)-3,4-dihydro-2H-benzo[b][1,4]oxazine-6-carboxamide]"
14,100 to 1000,"COCCn1c(N2CCCc3ccc(C(=O)NO)cc32)nc2ccccc21 [Compound I-110, N-hydroxy-1-(1-(2-methoxyethyl)-1H-benzo[d]imidazol-2-yl)-1,2,3,4-tetrahydroquinoline-7-carboxamide]"
